Tests used:
[1] = DRUGMATRIX: Phosphodiesterase PDE4 enzyme inhibition (substrate: [3H]cAMP + cAMP); settings: u-937; Not Active = under 50% inhibition at 10 µM
[2] = target: Delta-type opioid receptor (Homo sapiens, UniProt P41143); type: cell membranes, HEK293, Membrane; settings: hek293; note: in other assays of this panel Not Active means under 50% inhibition at 10 µM
[3] = DRUGMATRIX: Interleukin IL-1 radioligand binding (ligand: [125I] interleukin 1beta); type: cell membranes, Membrane; settings: nih3t3; Not Active = under 50% inhibition at 10 µM
[4] = DRUGMATRIX: Phosphodiesterase PDE3 enzyme inhibition (substrate: [3H]cAMP + cAMP); type: tissue-based, Homo sapiens; settings: platelet; Not Active = under 50% inhibition at 10 µM
Adenosine receptor A2a = Adenosine receptor A2a (Homo sapiens, UniProt P29274); experiment: DRUGMATRIX: Adenosine A2A radioligand binding (ligand: […]); type: cell membranes, HEK293, Membrane; settings: hek293; Not Active = under 50% inhibition at 10 µM
Adenosine receptor A2a, sequence (P29274 whole entry): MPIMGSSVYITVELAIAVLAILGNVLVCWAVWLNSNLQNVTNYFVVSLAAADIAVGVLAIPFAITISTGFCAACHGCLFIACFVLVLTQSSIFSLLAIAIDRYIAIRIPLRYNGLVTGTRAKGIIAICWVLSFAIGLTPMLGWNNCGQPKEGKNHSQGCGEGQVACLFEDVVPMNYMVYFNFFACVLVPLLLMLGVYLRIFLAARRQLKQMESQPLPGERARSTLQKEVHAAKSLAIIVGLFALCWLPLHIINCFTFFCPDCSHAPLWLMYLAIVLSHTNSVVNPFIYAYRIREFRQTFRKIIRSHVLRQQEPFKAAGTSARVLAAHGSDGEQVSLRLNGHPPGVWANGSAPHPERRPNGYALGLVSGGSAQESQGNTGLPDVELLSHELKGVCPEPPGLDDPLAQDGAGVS

[5] = DRUGMATRIX: Calcium Channel Type L, Dihydropyridine radioligand binding (ligand: [3H] Nitrendipine); type: cell membranes, Rattus norvegicus, Wistar, Cerebral cortex, Membrane; settings: Not Active = under 50% inhibition at 10 µM
Glucocorticoid receptor = target: T1, Glucocorticoid receptor (Homo sapiens, UniProt P04150); settings: hela s3; note: in other assays of this panel Not Active means under 50% inhibition at 10 µM
T1 sequence (P04150 whole entry): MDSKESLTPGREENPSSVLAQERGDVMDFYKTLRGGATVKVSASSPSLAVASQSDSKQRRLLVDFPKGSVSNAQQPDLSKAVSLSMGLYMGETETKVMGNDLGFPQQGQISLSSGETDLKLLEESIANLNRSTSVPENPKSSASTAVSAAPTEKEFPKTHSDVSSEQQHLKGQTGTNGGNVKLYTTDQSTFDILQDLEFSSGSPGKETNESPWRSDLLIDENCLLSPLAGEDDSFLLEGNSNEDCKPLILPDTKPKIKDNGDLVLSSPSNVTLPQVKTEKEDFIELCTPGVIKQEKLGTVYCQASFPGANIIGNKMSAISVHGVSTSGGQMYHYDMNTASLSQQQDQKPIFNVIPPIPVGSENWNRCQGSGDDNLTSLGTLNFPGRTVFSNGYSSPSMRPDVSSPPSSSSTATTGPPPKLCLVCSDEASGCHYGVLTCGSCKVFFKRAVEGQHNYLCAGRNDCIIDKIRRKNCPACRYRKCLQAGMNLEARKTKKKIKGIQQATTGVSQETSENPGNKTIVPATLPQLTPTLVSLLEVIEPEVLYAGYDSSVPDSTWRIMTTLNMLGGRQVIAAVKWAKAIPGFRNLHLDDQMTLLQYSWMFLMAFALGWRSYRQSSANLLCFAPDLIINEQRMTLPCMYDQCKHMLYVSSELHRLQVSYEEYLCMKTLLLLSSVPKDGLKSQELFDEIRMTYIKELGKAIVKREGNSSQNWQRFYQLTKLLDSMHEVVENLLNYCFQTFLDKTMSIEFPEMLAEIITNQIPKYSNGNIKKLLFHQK

[6] = DRUGMATRIX: ATPase, Na+/K+ enzyme inhibition (substrate: ATP); type: tissue-based, Sus scrofa, Heart; settings: Not Active = under 50% inhibition at 10 µM
[7] = target: T2, Amine oxidase [flavin-containing] A (Homo sapiens, UniProt P21397); experiment: DRUGMATRIX: Monoamine Oxidase MAO-A enzyme inhibition (substrate: Kynuramine); design: species or system BTI-TN-5B1-4; settings: bti-tn-5b1-4; Not Active = under 50% inhibition at 10 µM
T2 sequence (P21397 whole entry): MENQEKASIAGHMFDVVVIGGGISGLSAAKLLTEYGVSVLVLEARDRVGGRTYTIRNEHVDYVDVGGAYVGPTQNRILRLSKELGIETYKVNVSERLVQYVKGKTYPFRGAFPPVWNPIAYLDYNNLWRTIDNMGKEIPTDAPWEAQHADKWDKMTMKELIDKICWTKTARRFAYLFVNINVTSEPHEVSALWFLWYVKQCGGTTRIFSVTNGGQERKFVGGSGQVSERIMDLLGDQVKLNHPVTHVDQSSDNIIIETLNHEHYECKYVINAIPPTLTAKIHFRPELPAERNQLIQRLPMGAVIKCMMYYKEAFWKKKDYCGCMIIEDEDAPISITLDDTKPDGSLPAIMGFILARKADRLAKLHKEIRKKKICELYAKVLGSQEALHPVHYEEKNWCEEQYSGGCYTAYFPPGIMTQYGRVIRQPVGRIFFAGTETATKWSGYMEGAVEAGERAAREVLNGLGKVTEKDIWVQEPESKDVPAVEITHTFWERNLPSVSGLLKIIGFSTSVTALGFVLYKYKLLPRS

[8] = target: Kappa-type opioid receptor (Homo sapiens, UniProt P41145); experiment: DRUGMATRIX: Opiate kappa (OP2, KOP) radioligand binding (ligand: [3H] Diprenorphine); type: cell membranes, HEK293, Membrane; settings: hek293; Not Active = under 50% inhibition at 10 µM
Kappa-type opioid receptor, sequence (P41145 whole entry): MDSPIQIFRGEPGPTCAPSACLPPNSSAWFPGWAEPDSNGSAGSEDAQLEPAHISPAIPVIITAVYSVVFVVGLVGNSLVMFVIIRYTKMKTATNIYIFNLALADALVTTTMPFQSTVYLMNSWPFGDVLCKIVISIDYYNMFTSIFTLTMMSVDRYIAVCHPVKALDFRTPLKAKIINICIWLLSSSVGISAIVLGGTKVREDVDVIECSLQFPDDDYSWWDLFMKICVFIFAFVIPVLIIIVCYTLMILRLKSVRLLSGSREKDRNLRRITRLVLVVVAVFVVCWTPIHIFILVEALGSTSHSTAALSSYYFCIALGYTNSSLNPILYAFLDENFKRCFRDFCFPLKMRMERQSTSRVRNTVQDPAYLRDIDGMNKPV

[9] = target: T3, C-X-C chemokine receptor type 2 (Homo sapiens, UniProt P25025); type: cell membranes, Membrane; settings: cho-k1; note: in other assays of this panel Not Active means under 50% inhibition at 10 µM
T3 sequence (P25025 whole entry): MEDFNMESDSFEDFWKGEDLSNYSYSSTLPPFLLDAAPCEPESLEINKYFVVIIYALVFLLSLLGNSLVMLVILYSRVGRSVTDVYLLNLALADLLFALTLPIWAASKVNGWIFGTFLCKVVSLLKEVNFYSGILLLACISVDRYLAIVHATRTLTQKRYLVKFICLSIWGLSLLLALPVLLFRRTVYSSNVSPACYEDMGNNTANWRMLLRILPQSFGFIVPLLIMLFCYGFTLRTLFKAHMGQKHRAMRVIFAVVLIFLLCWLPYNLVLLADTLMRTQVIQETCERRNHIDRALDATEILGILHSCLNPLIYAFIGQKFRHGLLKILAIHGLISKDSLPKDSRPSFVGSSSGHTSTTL

[10] = DRUGMATRIX: Leukotriene, BLT (LTB4) radioligand binding (ligand: [3H]LTB4); type: cell membranes, Membrane; settings: u-937; Not Active = under 50% inhibition at 10 µM
Substance-P receptor = Substance-P receptor (Homo sapiens, UniProt P25103); type: cell membranes, CHO, Membrane; settings: cho; note: in other assays of this panel Not Active means under 50% inhibition at 10 µM
Substance-P receptor, sequence (P25103 whole entry): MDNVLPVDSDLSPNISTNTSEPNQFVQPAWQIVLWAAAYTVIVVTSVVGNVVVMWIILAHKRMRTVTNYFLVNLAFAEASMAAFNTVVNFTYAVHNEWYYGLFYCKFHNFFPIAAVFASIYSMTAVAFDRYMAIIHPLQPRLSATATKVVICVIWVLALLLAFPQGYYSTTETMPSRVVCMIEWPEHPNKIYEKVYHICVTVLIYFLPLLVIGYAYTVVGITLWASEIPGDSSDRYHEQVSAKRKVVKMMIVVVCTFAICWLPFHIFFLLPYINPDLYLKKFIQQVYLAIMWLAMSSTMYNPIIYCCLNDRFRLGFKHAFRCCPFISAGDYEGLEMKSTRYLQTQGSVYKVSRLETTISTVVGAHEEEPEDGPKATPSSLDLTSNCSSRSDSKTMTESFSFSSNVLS

Delta-type opioid receptor, sequence (P41143 whole entry): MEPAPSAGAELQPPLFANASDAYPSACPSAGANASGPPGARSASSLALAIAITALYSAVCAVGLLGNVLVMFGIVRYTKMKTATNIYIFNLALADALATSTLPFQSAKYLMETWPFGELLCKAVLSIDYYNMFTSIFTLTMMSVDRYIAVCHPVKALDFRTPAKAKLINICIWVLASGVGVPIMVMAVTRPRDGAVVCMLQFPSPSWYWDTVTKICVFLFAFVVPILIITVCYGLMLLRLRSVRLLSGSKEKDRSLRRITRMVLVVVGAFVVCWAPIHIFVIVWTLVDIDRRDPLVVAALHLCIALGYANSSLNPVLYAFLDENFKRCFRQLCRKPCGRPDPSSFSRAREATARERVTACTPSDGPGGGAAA

Nc1nc2c(ncn2COC(CO)CO)c(=O)[nH]1 [GANCICLOVIR]
Not Active: IC50 [1] | Ki [1] | IC50 [2] | IC50 [3] | Ki [3] | IC50 [4] | Ki [4] | IC50 (Adenosine receptor A2a) | IC50 [5] | Ki [5] | IC50 (Glucocorticoid receptor) | IC50 [6] | Ki [6] | IC50 [7] | IC50 [8] | IC50 [9] | IC50 [10] | Ki [10] | IC50 (Substance-P receptor)

COc1c(N2CCNC(C)C2)c(F)cc2c(=O)c(C(=O)O)cn(C3CC3)c12 (centres undefined) [GATIFLOXACIN]
Not Active: IC50 [1] | Ki [1] | IC50 [2] | IC50 [3] | Ki [3] | IC50 [4] | Ki [4] | IC50 (Adenosine receptor A2a) | IC50 [5] | Ki [5] | IC50 (Glucocorticoid receptor) | IC50 [6] | Ki [6] | IC50 [7] | IC50 [8] | IC50 [9] | IC50 [10] | Ki [10] | IC50 (Substance-P receptor)

NCC(=O)O [GLYCINE]
Not Active: IC50 [1] | Ki [1] | IC50 [2] | IC50 [3] | Ki [3] | IC50 [4] | Ki [4] | IC50 (Adenosine receptor A2a) | IC50 [5] | Ki [5] | IC50 (Glucocorticoid receptor) | IC50 [6] | Ki [6] | IC50 [7] | IC50 [8] | IC50 [9] | IC50 [10] | Ki [10] | IC50 (Substance-P receptor)

COC1=CC(=O)C[C@@H](C)[C@]12Oc1c(Cl)c(OC)cc(OC)c1C2=O [GRISEOFULVIN]
Not Active: IC50 [1] | Ki [1] | IC50 [2] | IC50 [3] | Ki [3] | IC50 [4] | Ki [4] | IC50 (Adenosine receptor A2a) | IC50 [5] | Ki [5] | IC50 (Glucocorticoid receptor) | IC50 [6] | Ki [6] | IC50 [7] | IC50 [8] | IC50 [9] | IC50 [10] | Ki [10] | IC50 (Substance-P receptor)

C/C=C1\[C@H]2C=C(C)C[C@]1(N)c1ccc(=O)[nH]c1C2 [HUPERZINE A]
Not Active: IC50 [1] | Ki [1] | IC50 [2] | IC50 [3] | Ki [3] | IC50 [4] | Ki [4] | IC50 (Adenosine receptor A2a) | IC50 [5] | Ki [5] | IC50 (Glucocorticoid receptor) | IC50 [6] | Ki [6] | IC50 [7] | IC50 [8] | IC50 [9] | IC50 [10] | Ki [10] | IC50 (Substance-P receptor)

NS(=O)(=O)c1cc2c(cc1Cl)NCNS2(=O)=O [HYDROCHLOROTHIAZIDE]
Not Active: IC50 [1] | Ki [1] | IC50 [2] | IC50 [3] | Ki [3] | IC50 [4] | Ki [4] | IC50 (Adenosine receptor A2a) | IC50 [5] | Ki [5] | IC50 (Glucocorticoid receptor) | IC50 [6] | Ki [6] | IC50 [7] | IC50 [8] | IC50 [9] | IC50 [10] | Ki [10] | IC50 (Substance-P receptor)

Source: ChEMBL document CHEMBL1909046, “DrugMatrix in vitro pharmacology data”
